Results as given in patent US20120231072A1, “THERMO-RESPONSIVE HYDROGEL COMPOSITIONS” (Chemisches Institut Schaefer AG, priority 2011, published 2012).
Structures can show the parent of a compound that is named as a salt. Where two headings read alike, the source gives them in different places.

Assays:
[1] = Drug encapsulation efficiency in PLGA particles; format: physicochemical
Method: The clear organic mixture was emulsified into an external aqueous phase (5 ml, 2% w/v PVA) with vortexing for 20 seconds followed by sonication on ice at 55 W for 5 minutes. […] Nanospheres were harvested by ultracentrifugation at 16,000 g for 10 min, after which the resultant pellet was re-suspended in DI water by sonication and washed twice with DI water. […] Dynamic light scattering (DLS) was used to characterize the size of the nanospheres. To investigate nanosphere encapsulation in thermo-responsive hydrogels, nanospheres were added into the hydrogel precursor solutions at 0, 2.5, 5, and 10 mg/ml prior to polymerization initiated by the addition of TEMED. The hydrogels were then washed 5 times with PBS every 20 minutes, as described for hydrogels with no nanospheres. Swelling ratio was tested for hydrogels with varying concentration of nanospheres at both room and body temperature.
The drug concentration was determined spectrophotometrically at 240 nm. […] The encapsulation efficiency was calculated as (actual drug loaded/total drug used)×100%.

[2] = test system: endotoxin-induced uveitis (EIU) animal model; conditions: 24 hours after intravitreal treatment; LPS alone ~45% vasodilation
Method: Adult male Lewis rats (weight 310-350 g) were used as an endotoxin-induced uveitis (EIU) animal model. LPS from Salmonella Typhimurium (Sigma Aldrich, St. Louis, Mo.) was mixed with PBS immediately prior to the injection. The animals were divided as followed:
Control: intravitreal injection of LPS at day 0. ˜5 μl intravitreal injection of control gel (no dexamethasone) at 24 hrs after the LPS induction (day 1);
Treatment control: intravitreal injection of LPS at day 0. ˜5 μl intravitreal injection of dexamethasone (10 mg/ml dose, Sigma) at 24 hrs after the LPS induction;
Treatment 1: intravitreal injection of LPS at day 0. ˜5 μl intravitreal injection of dexamethasone hydrogel (10 mg/ml dose, Sigma) at 24 hrs after the LPS induction; and
Treatment 2: intravitreal injection of LPS at day 0. ˜5 μl subconjunctival injection of dexamethasone hydrogel (10 mg/ml dose, Sigma) at 24 hrs after the LPS induction.
The dexamethasone was loaded by equilibrating 0.1 ml of hydrogel in 2 ml of dexamethasone drug solution. SLO images and blood flow measurement were obtained before the LPS induction, 1, 2, 3, and 6 days after the LPS (and dexametheasone treatment). Furthermore, in one animal, the thermo-hydrogel (control) was applied directly to the cornea (simulate eyedrops).

[3] = cited from earlier work

Row | encapsulation efficiency ([1]; dexamethasone 1:2 (w/w) of PLGA) [%] | encapsulation efficiency ([1]; dexamethasone 1:10 (w/w) of PLGA) [%] | P (oil/water) (Methylene chloride + methanol / 0.2% PVA) | P (oil/water) (Methylene chloride + methanol / 2% PVA) | P (oil/water) (Methylene chloride + methanol / 2% PVA + 0.25N (NH4)2SO4) | P (oil/water) (Methylene chloride + methanol / 2% PVA + 0.5N NaCl) | SMILES | degree of dilation of retinal vessels [2] [%] | solubility in water [3] [mg/mL]
1 | 7.5 | 2.5 |  |  |  |  | C[C@@H]1C[C@H]2[C@@H]3CCC4=CC(=O)C=C[C@]4(C)[C@@]3(F)[C@@H](O)C[C@]2(C)[C@@]1(O)C(=O)CO [dexamethasone] | ~15 | 
2 |  |  | 0.06 | 0.15 | 0.86 | 0.26 | C[C@@H]1C[C@H]2[C@@H]3CCC4=CC(=O)C=C[C@]4(C)[C@@]3(F)[C@@H](O)C[C@]2(C)[C@@]1(O)C(=O)COP(=O)(O)O [DSP, Dexamethasone 21-phosphate disodium salt] |  | > 50
